Ki data for 29 compounds are collected here from patent US20200270237A1 (priority 2017, published 2020).

Assay [1] concerns the target Human α2δ-1 Subunit of Cav2.2 Calcium Channel (Homo sapiens, UniProt P54289). The experiment in a line: biochemical. It counts as binding.
The next assay deals with human μ-opioid receptor (Homo sapiens, UniProt P35372). The experiment in a line: biochemical. The class given is binding.
The mark [2] stands for this setting: read-out: Ki (nM) alpha2delta Hum.
The mark [3] stands for this setting: Table 1, human α2δ-1 enriched membranes, 15 nM [3H]-Gabapentin, read-out: Ki (nM) alpha2delta Hum.
Setting [4] is: Table 2 (dual compounds), human α2δ-1 enriched membranes, 15 nM [3H]-Gabapentin, read-out: Ki (nM) alpha2delta Hum.

Read-outs that look alike come from different tables or passages of the source.

Chain of human μ-opioid receptor (P35372 whole entry): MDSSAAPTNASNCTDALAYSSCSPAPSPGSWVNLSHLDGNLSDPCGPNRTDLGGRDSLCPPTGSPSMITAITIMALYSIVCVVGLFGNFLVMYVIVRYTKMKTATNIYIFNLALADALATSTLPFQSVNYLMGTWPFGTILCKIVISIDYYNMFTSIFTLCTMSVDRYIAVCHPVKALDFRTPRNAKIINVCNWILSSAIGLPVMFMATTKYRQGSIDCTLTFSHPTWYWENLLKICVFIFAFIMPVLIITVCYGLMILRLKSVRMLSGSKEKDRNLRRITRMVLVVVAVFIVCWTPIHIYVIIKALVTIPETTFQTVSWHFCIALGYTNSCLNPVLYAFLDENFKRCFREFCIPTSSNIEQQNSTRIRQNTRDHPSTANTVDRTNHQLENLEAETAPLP
Chain of Human α2δ-1 Subunit of Cav2.2 Calcium Channel (P54289 25-1103): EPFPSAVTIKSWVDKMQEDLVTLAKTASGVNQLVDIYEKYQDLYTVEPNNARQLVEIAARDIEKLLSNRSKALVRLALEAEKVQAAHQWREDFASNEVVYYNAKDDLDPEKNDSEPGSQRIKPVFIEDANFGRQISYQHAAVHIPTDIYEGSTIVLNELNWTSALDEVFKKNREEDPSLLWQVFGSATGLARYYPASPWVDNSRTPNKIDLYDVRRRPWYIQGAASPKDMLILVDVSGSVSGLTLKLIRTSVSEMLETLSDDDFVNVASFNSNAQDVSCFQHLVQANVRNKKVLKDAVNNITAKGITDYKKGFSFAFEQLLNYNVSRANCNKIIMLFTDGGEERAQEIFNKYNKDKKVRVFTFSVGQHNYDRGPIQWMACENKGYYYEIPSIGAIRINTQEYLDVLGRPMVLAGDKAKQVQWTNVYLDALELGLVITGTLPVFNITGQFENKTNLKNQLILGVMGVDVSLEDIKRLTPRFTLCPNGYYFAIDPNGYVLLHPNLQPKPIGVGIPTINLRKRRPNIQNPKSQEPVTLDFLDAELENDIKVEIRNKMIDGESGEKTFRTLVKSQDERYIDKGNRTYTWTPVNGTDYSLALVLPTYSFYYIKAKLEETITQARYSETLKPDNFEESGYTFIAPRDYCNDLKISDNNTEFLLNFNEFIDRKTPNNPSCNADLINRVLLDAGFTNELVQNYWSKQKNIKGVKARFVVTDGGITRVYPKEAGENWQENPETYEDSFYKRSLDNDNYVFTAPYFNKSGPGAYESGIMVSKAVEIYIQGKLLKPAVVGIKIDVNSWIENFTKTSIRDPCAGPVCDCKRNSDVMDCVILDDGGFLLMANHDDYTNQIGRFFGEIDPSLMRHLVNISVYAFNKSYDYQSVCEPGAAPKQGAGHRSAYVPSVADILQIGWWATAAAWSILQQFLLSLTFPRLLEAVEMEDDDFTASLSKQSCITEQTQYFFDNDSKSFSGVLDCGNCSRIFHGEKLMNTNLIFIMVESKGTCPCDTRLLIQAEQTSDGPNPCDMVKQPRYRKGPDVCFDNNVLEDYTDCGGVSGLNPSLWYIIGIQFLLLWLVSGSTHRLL

On to `CNCCC(OCc1cccc(N2CCc3ccccc3C2=O)c1)c1cccs1` (stereo not drawn) [Example 32, 2-(3-((3-(Methylamino)-1-(thiophen-2-yl)propoxy)methyl)phenyl)-3,4-dihydroisoquinolin-1(2H)-one], for which the Ki in assay [1] is 500 to 3000 nM; at human μ-opioid receptor it was 100 to 500 nM.
On the same counts, the results for `CNCCC(OCc1cccc(CN2CCC(c3ccccc3)(N(C)C)CC2)c1)c1ccccc1` (stereo not drawn) [Example 25] are 500 to 3000 nM and under 100 nM.
For `CNCC[C@@H](OCc1cccc(CN2CCN([C@@]3(C(=O)c4ccccn4)CCOC(C)(C)C3)CC2)c1)c1ccccc1` [Example 28, ((S)-2,2-dimethyl-4-(4-(3-(((R)-3-(methylamino)-1-phenylpropoxy)methyl)benzyl)piperazin-1-yl)tetrahydro-2H-pyran-4-yl)(pyridin-2-yl)methanone], the Ki in assay [1] (setting [2]) was 500 to 3000 nM.
The same measure, in the same setting: for `CNCC[C@H](Oc1cccc(CN2CCN([C@@]3(C(=O)c4ccccn4)CCOC(C)(C)C3)CC2)c1)c1cccs1` [Example 19, ((S)-2,2-dimethyl-4-(4-(3-((S)-3-(methylamino)-1-(thiophen-2-yl)propoxy)benzyl)piperazin-1-yl)tetrahydro-2H-pyran-4-yl)(pyridin-2-yl)methanone] the value was over 3000 nM.
Consider `CNCCC(Oc1cccc(CN2CCC(c3ccccc3)(N(C)C)CC2)c1)c1cccs1` (stereo not drawn) [Example 2, N,N-dimethyl-1-(3-(3-(methylamino)-1-(thiophen-2-yl)propoxy)benzyl)-4-phenylpiperidin-4-amine], for which, in assay [1], the Ki is 100 to 500 nM.
`CNCCC(Oc1cccc(C(=O)N2CCC(c3ccccc3)(N(C)C)CC2)c1)c1cccs1` (stereo not drawn) [Example 7, (4-(Dimethylamino)-4-phenylpiperidin-1-yl)(3-(3-(methylamino)-1-(thiophen-2-yl)propoxy)phenyl)methanone]: the Ki in assay [1] (setting [3]) and in assay [1] (setting [4]) was 500 to 3000 nM throughout.
On to `CNCC[C@H](OCc1cccc(CN2CCC(c3ccccc3)(N(C)C)CC2)c1)c1cccs1` [Example 21, (S)-N,N-dimethyl-1-(3-((3-(methylamino)-1-(thiophen-2-yl)propoxy)methyl)benzyl)-4-phenylpiperidin-4-amine], for which the Ki in assay [1] (setting [3]) and in assay [1] (setting [4]) was over 3000 nM in each case.
As for `CC[C@]1(N2CCN(CCc3cccc(O[C@H](CCNC)c4ccccc4)c3)CC2)CCOC(C)(C)C1` [Example 12a, (R)-3-(3-(2-(4 ((S)-4-ethyl-2,2-dimethyltetrahydro-2H-pyran-4-yl)piperazin-1-yl)ethyl)phenoxy)-N-methyl-3-phenylpropan-1-amine], the Ki in assay [1] (setting [2]) lay in the range of 500 to 3000 nM.
With `CNCCC(Oc1cccc(N2C[C@@H](C)N[C@@H](C)C2)c1)c1cccs1` (stereo partly drawn) [Example 44, 3-(3-((3S,5R)-3,5-dimethylpiperazin-1-yl)phenoxy)-N-methyl-3-(thiophen-2-yl)propan-1-amine], the Ki in assay [1] lay within 100 to 500 nM.
In the case of `CNCCC(Oc1cccc(N2CCN(C)CC2=O)c1)c1cccs1` (stereo not drawn) [Example 36, 4-Methyl-1-(3-(3-(methylamino)-1-(thiophen-2-yl)propoxy)phenyl)piperazin-2-one], the Ki in assay [1] (setting [2]) is over 3000 nM.
On the same count and under the same terms, under `CC[C@@]1(N2CCN(CCc3cccc(O[C@H](CCNC)c4ccccc4)c3)CC2)CCOC(C)(C)C1` [Example 12b, (R)-3-(3-(2-(4-((R)-4-ethyl-2,2-dimethyltetrahydro-2H-pyran-4-yl)piperazin-1-yl)ethyl)phenoxy)-N-methyl-3-phenylpropan-1-amine] stands 500 to 3000 nM; under `CNCC[C@H](Oc1ccc(CN2CCc3ccccc3C2=O)cc1)c1cccs1` [Example 50, (S)-(4-(3-(methylamino)-1-(thiophen-2-yl)propoxy)benzyl)-3,4-dihydroisoquinolin-1(2H)-one], 500 to 3000 nM.
As for `CNCC[C@@H](Oc1cccc(CN2CCC(c3ccccc3)(N(C)C)CC2)c1)c1cccs1` [Example 16, (R)-N,N-dimethyl-1-(3-(3-(methylamino)-1-(thiophen-2-yl)propoxy)benzyl)-4-phenylpiperidin-4-amine], the Ki in assay [1] lay in the range of 500 to 3000 nM.
For the compound `CNCCC(OCc1cccc(N2CCNc3ccccc32)c1)c1ccccc1` (stereo not drawn) [Example 47, 3-((3-(3,4-Dihydroquinoxalin-1(2H)-yl)benzyl)oxy)-N-methyl-3-phenylpropan-1-amine], the values for the Ki (in assay [1] (setting [2]); on human μ-opioid receptor (read-out: MU Ki)) were over 3000 nM and over 1000 nM, respectively.
With `CNCCC(OCc1cccc(N2CCCCC2=O)c1)c1cccs1` (stereo not drawn) [Example 39, 1-(3-((3-(Methylamino)-1-(thiophen-2-yl)propoxy)methyl)phenyl)piperidin-2-one], the Ki in assay [1] (setting [2]) is 500 to 3000 nM.
Consider `CNCCC(Oc1cccc(CN2CCC(c3cccc(O)c3)CC2)c1)c1cccs1` (stereo not drawn) [Example 3, 3-(1-(3-(3-(Methylamino)-1-(thiophen-2-yl)propoxy)benzyl)piperidin-4-yl)phenol], for which the Ki in assay [1] is 100 to 500 nM.
For `CNCCC(Oc1cccc(C(=O)N2CCN(C)CC2)c1)c1cccs1` (stereo not drawn) [Example 11, (3-(3-(Methylamino)-1-(thiophen-2-yl)propoxy)phenyl)(4-methylpiperazin-1-yl)methanone], in assay [1] (setting [2]), the Ki was over 3000 nM.
As for `CNCC[C@@H](OCc1cccc(CN2CCC(c3ccccc3)(N(C)C)CC2)c1)c1ccccc1` [Example 26, (R)-N,N-dimethyl-1-(3-((3-(methylamino)-1-phenylpropoxy)methyl)benzyl)-4-phenylpiperidin-4-amine], the figures for the Ki (in assay [1]; on human μ-opioid receptor) were 500 to 3000 nM and under 100 nM, respectively.
As to `CNCCC(OCc1cccc(N2CCC(N(C)C)CC2)c1)c1ccccc1` (stereo not drawn) [Example 48, N,N-dimethyl-1-(3-((3-(methylamino)-1-phenylpropoxy)methyl)phenyl)piperidin-4-amine], the Ki in assay [1] (setting [2]) was in the range of 500 to 3000 nM.
As to `CNCC[C@@H](OCc1cccc(CN2CCC(c3cccc(O)c3)(N(C)C)CC2)c1)c1cccs1` [Example 24, (R)-3-(4-(dimethylamino)-1-(3-((3-(methylamino)-1-(thiophen-2-yl)propoxy)methyl)benzyl)piperidin-4-yl)phenol], in assay [1], the Ki was in the range of 500 to 3000 nM.
Consider `CNCCC(Oc1ccc(CN2CCc3ccccc3C2)c(F)c1)c1cccs1` (stereo not drawn) [Example 55, 3-(4-((3,4-Dihydroisoquinolin-2(1H)-yl)methyl)-3-fluorophenoxy)-N-methyl-3-(thiophen-2-yl)propan-1-amine], for which the Ki in assay [1] is over 3000 nM.
For `CNCCC(Oc1cccc(N2CCN(C)CC2)c1)c1ccccc1` (stereo not drawn) [Example 35, N-methyl-3-(3-(4-methylpiperazin-1-yl)phenoxy)-3-phenylpropan-1-amine], the Ki in assay [1] (setting [2]) was 500 to 3000 nM.
With `CNCCC(OCc1cccc(N2CCN(C)CC2=O)c1)c1ccccc1` (stereo not drawn) [Example 41, 4-Methyl-1-(3-((3-(methylamino)-1-phenylpropoxy)methyl)phenyl)piperazin-2-one], the Ki in assay [1] (setting [2]) was over 3000 nM.
As for `CNCC[C@H](Oc1ccc(CN2CCn3cccc3C2=O)cc1)c1cccs1` [Example 53, (S)-2-(4-(3-(methylamino)-1-(thiophen-2-yl)propoxy)benzyl)-3,4-dihydropyrrolo[1,2-a]pyrazin-1(2H)-one], the Ki in assay [1] (setting [2]) was in the range of 500 to 3000 nM.
As for `CNCCC(Oc1ccc(CN2CCCc3ccccc32)c(F)c1)c1cccs1` (stereo not drawn) [Example 54, 3-(4-((3,4-Dihydroquinolin-1(2H)-yl)methyl)-3-fluorophenoxy)-N-methyl-3-(thiphen-2-yl)propan-1-amine], the Ki in assay [1] is over 3000 nM.
As for `CNCC[C@H](OCc1cccc(CN2CCC(c3ccccc3)(N(C)C)CC2)c1)c1ccccc1` [Example 27, (S)-N,N-dimethyl-1-(3-((3-(methylamino)-1-phenylpropoxy)methyl)benzyl)-4-phenylpiperidin-4-amine], the Ki is over 3000 nM in assay [1] and under 100 nM at human μ-opioid receptor.
Regarding `CC[C@]1(N2CCN(Cc3cccc(CO[C@H](CCNC)c4ccccc4)c3)CC2)CCOC(C)(C)C1` [Example 31, (R)-3-((3-((4-((S)-4-ethyl-2,2-dimethyltetrahydro-2H-pyran-4-yl)piperazin-1-yl)methyl)benzyl)oxy)-N-methyl-3-phenylpropan-1-amine], in assay [1] (setting [2]), the Ki was 500 to 3000 nM.
In the case of `CNCCC(Oc1cccc(N2CCCCC2=O)c1)c1ccccc1` (stereo not drawn) [Example 33, 1-(3-(3-(Methylamino)-1-phenylpropoxy)phenyl)piperidin-2-one], the Ki in assay [1] (setting [2]) is over 3000 nM.
Regarding `CNCCC(OCc1cccc(N2CCN(C)CC2)c1)c1ccccc1` (stereo not drawn) [Example 40, N-methyl-3-((3-(4-methylpiperazin-1-yl)benzyl)oxy)-3-phenylpropan-1-amine], the Ki in assay [1] (setting [2]) was in the range of 500 to 3000 nM.
